Patent publication US9028856B2, “Synergistic pesticide compositions” (priority 2008, dated 2015)
Like-named read-outs stand apart in the source and are kept apart here. Marks after values point to notes of the source that are not given here.

What was measured:
Type in all cases: in vivo
[1] = tested on: bait averse/resistant German cockroach (IHOP strain), Blattella germanica; experiment: Knockdown/mortality of male cockroaches under continuous exposure on treated glazed tile; conditions: Table 28, aqueous deltamethrin/adjuvant, IHOP strain
Protocol: Treatments were allowed to dry overnight. […] Treatments were replicated a minimum of three times. Evaluations for cockroach knockdown/mortality were made at various intervals for 1 hour and at 24 hours after exposure.
Treatments were allowed to dry overnight. […] Evaluations for cockroach knockdown/mortality were made at various intervals and at 60 minutes after exposure.
Treatments were allowed to dry overnight. […] Treatments were replicated a minimum of three times.

[2] = tested on: bedbug (Cimex lectularius); experiment: Contact efficacy against bedbugs on various surfaces (wood, PVC, wallpaper, mattress, glass); conditions: for efficacy on wood, PVC, wallpaper, mattress and glass (summary in words): Example 106, imidacloprid 0.008% or 0.0016% (30 and 6 mg a.i./m^2)
Protocol: (§1) Adult Cimex lectularius, susceptible strain, were used. A solution of the active ingredient in acetone was prepared. In the same mode a complete […]. All these works were done under drawing off conditions. After evaporation of the acetone (30′) the dishes were closed by a glass lid and transferred into the test room.
(§2) One day later ten bedbugs, anaesthetized with CO2, were counted into each dish. At regular intervals, knock down was recorded (cumulatively).
(§3) The same methodology was used as was used in Example 105.

[3] = tested on: Blattella germanica, susceptible strain; experiment: Contact efficacy against cockroaches on glazed tiles (acetone solutions); conditions: mean of three replicates; for mortality at 60 mg/m2: imidacloprid 0.1%, 60 mg/m^2, glazed tile; for mortality at 310 mg/m2: imidacloprid 0.5%, 310 mg/m^2, glazed tile; for mortality at 620 mg/m2: imidacloprid 1%, 620 mg/m^2, glazed tile
Protocol: Male Blattella germanica, susceptible strain, were used. A solution of the active ingredient in acetone pipetted onto the corresponding tile on an area of 12.5 cm×12.5 cm.
One day later, a glass ring (diameter 9.5 cm, height 5.5 cm) inner wall treated with talcum was placed on the tile and five male German cockroaches were introduced. Knock down and mortality, respectively, were evaluated after 30′, 1 h, 3 h and 1 d. A water soaked cotton pad was added after 3 hours.
Each trial consisted of three replicates of which the mean values are calculated.

[4] = tested on: bedbug (Cimex lectularius), susceptible strain; experiment: Contact efficacy against bedbugs on filter papers in glass dishes
Protocol: as §1, §2, §3

[5] = Glass, 0.008% imidacloprid (30 mg/m^2) in acetone
[6] = Mattress, 0.0016% imidacloprid (6 mg/m^2) in acetone
[7] = Mattress, 0.008% imidacloprid (30 mg/m^2) in acetone
[8] = PVC, 0.0016% imidacloprid (6 mg/m^2) in acetone
[9] = PVC, 0.008% imidacloprid (30 mg/m^2) in acetone
[10] = Wallpaper, 0.0016% imidacloprid (6 mg/m^2) in acetone
[11] = Wallpaper, 0.008% imidacloprid (30 mg/m^2) in acetone
[12] = Wood, 0.0016% imidacloprid (6 mg/m^2) in acetone
[13] = Wood, 0.008% imidacloprid (30 mg/m^2) in acetone
[14] = 0.5 h, read-out: Average % knockdown & mortality after 30 min
[15] = 1 h, read-out: Average % knockdown & mortality after 60 min
[16] = 3 h, read-out: Average % knockdown & mortality after 3 hr
[17] = 24 h, read-out: Average % knockdown & mortality after 24 hr
[18] = 0.00032% imidacloprid (1 mg/m^2) in acetone, filter papers, Table 105
[19] = 0.0016% Imidacloprid in acetone, first test
[20] = 0.0016% Imidacloprid in acetone, second test
[21] = 0.0016% imidacloprid (6 mg/m^2) in acetone, filter papers, Table 105
[22] = 0.008% Imidacloprid in acetone, first test
[23] = 0.008% Imidacloprid in acetone, second test

## CC1(C)[C@H](C(=O)O[C@H](C#N)c2cccc(Oc3ccccc3)c2)[C@@H]1C=C(Br)Br [deltamethrin (1%)]
[1]; 10 min
  Average % Mortality after 10 min: 20%
[1]; 30 min
  Average % Mortality after 30 min: 93%
[1]; 60 min
  Average % Mortality after 60 min: 100%
[1]; 24 hr
  Average % Mortality after 24 hr: 100%

## O=[N+]([O-])NC1=NCCN1Cc1ccc(Cl)nc1 [imidacloprid]
[2]
  efficacy on wood, PVC, wallpaper, mattress and glass (summary in words): No efficacy was found on wood, PVC, wallpaper and mattress
[2]; listed as 0.008% imidacloprid
  efficacy on wood, PVC, wallpaper, mattress and glass (summary in words): On glass, 0.008% imidacloprid alone acted relatively fast and had killed all bed bugs within one day
[2]; [5]
  % knock down or moribund after 1 h: 0%
  % knock down or moribund after 2 h: 100* %
  % knock down or moribund after 4 h: 85%
  % knock down or moribund after 6 h: 90%
  % knock down or moribund after 1 d: 100%
  % knock down or moribund after 2 d: 100%
  % knock down or moribund after 6 d: 100%
[2]; [6]
  % knock down or moribund after 1 h: 0%
  % knock down or moribund after 2 h: 0%
  % knock down or moribund after 4 h: 0%
  % knock down or moribund after 6 h: 0%
  % knock down or moribund after 1 d: 0%
  % knock down or moribund after 2 d: 0%
  % knock down or moribund after 6 d: 0%
[2]; [7]
  % knock down or moribund after 1 h: 0%
  % knock down or moribund after 2 h: 0%
  % knock down or moribund after 4 h: 0%
  % knock down or moribund after 6 h: 0%
  % knock down or moribund after 1 d: 0%
  % knock down or moribund after 2 d: 0%
  % knock down or moribund after 6 d: 0%
[2]; [8]
  % knock down or moribund after 1 h: 0%
  % knock down or moribund after 2 h: 0%
  % knock down or moribund after 4 h: 0%
  % knock down or moribund after 6 h: 0%
  % knock down or moribund after 1 d: 0%
  % knock down or moribund after 2 d: 0%
  % knock down or moribund after 6 d: 20%
[2]; [9]
  % knock down or moribund after 1 h: 0%
  % knock down or moribund after 2 h: 0%
  % knock down or moribund after 4 h: 0%
  % knock down or moribund after 6 h: 0%
  % knock down or moribund after 1 d: 0%
  % knock down or moribund after 2 d: 0%
  % knock down or moribund after 6 d: 40%
[2]; [10]
  % knock down or moribund after 1 h: 0%
  % knock down or moribund after 2 h: 0%
  % knock down or moribund after 4 h: 0%
  % knock down or moribund after 6 h: 0%
  % knock down or moribund after 1 d: 0%
  % knock down or moribund after 2 d: 0%
  % knock down or moribund after 6 d: 0%
[2]; [11]
  % knock down or moribund after 1 h: 0%
  % knock down or moribund after 2 h: 0%
  % knock down or moribund after 4 h: 0%
  % knock down or moribund after 6 h: 0%
  % knock down or moribund after 1 d: 0%
  % knock down or moribund after 2 d: 0%
  % knock down or moribund after 6 d: 0%
[2]; [12]
  % knock down or moribund after 1 h: 0%
  % knock down or moribund after 2 h: 0%
  % knock down or moribund after 4 h: 0%
  % knock down or moribund after 6 h: 0%
  % knock down or moribund after 1 d: 0%
  % knock down or moribund after 2 d: 0%
  % knock down or moribund after 6 d: 10%
[2]; [13]
  % knock down or moribund after 1 h: 0%
  % knock down or moribund after 2 h: 0%
  % knock down or moribund after 4 h: 0%
  % knock down or moribund after 6 h: 0%
  % knock down or moribund after 1 d: 0%
  % knock down or moribund after 2 d: 0%
  % knock down or moribund after 6 d: 0%
[3]; [14]
  mortality at 60 mg/m2: 0%
  mortality at 310 mg/m2: 0%
  mortality at 620 mg/m2: 0%
[3]; [15]
  mortality at 60 mg/m2: 0%
  mortality at 310 mg/m2: 0%
  mortality at 620 mg/m2: 0%
[3]; [16]
  mortality at 60 mg/m2: 20%
  mortality at 310 mg/m2: 0%
  mortality at 620 mg/m2: 13%
[3]; [17]
  mortality at 60 mg/m2: 40%
  mortality at 310 mg/m2: 0%
  mortality at 620 mg/m2: 40%
[4]; [18]
  % knock down or moribund after 1 h: 0%
  % knock down or moribund after 2 h: 0%
  % knock down or moribund after 4 h: 0%
  % knock down or moribund after 6 h: 0%
  % knock down or moribund after 1 d: 0%
  % knock down or moribund after 2 d: 0%
  % knock down or moribund after 6 d: 0%
[4]; [19]
  % knock down or moribund after 1 h: 0%
  % knock down or moribund after 2 h: 0%
  % knock down or moribund after 4 h: 0%
  % knock down or moribund after 6 h: 10%
  % knock down or moribund after 1 d: 20%
  % knock down or moribund after 2 d: 20%
  % knock down or moribund after 6 d: 40%
[4]; [20]
  % knock down or moribund after 1 h: 0%
  % knock down or moribund after 2 h: 0%
  % knock down or moribund after 4 h: 0%
  % knock down or moribund after 6 h: 0%
  % knock down or moribund after 1 d: 0%
  % knock down or moribund after 2 d: 0%
  % knock down or moribund after 6 d: 0%
[4]; [21]
  % knock down or moribund after 1 h: 0%
  % knock down or moribund after 2 h: 0%
  % knock down or moribund after 4 h: 0%
  % knock down or moribund after 6 h: 0%
  % knock down or moribund after 1 d: 0%
  % knock down or moribund after 2 d: 0%
  % knock down or moribund after 6 d: 0%
[4]; [22]
  % knock down or moribund after 1 h: 0%
  % knock down or moribund after 2 h: 0%
  % knock down or moribund after 4 h: 0%
  % knock down or moribund after 6 h: 20%
  % knock down or moribund after 1 d: 30%
  % knock down or moribund after 2 d: 40%
  % knock down or moribund after 6 d: 80%
[4]; [23]
  % knock down or moribund after 1 h: 0%
  % knock down or moribund after 2 h: 0%
  % knock down or moribund after 4 h: 0%
  % knock down or moribund after 6 h: 0%
  % knock down or moribund after 1 d: 0%
  % knock down or moribund after 2 d: 0%
  % knock down or moribund after 6 d: 10%
[4]; Example 106, filter paper, concentrations in the label
  efficacy after 6 days: 0%
